Experimental data taken from article PMC10817943 (Nature Communications, 2024).
In brackets after ≈: the same amount, converted by molar mass. Several values for one entry are separate records, joined by “and”; a condition that tells them apart may be missing. Equal entries are not always repeated. Where two headings read alike, the source gives them in different places. Numbered stars: 1 amine (or outer) side, 2 acyl side, 3 side chain; on linkers, the order of the positions; unused ones are H or OH. Bridge positions count the residues as written; N and C are the ends. Square brackets hold non-standard residues; d marks the D form. Peptide text beside a SMILES is read from it. * marks the point of attachment. ξ: configuration not given here. X1 = CCC1CC(C(=O)[*:2])N([*:1])C1; Butanoyl(2-oxo) = CCC(=O)C(=O)*; ξPro(4ξ-Me) = CC1CNC(C(=O)O)C1; NMeT = CN[CH](C(=O)O)[CH](C)O; NMeL = CN[CH](CC(C)C)C(=O)O; hLeu = CC(C)CC[CH](N)C(=O)O; NMeV = CN[CH](C(=O)O)C(C)C

Assays:
[1] = system: S. aureus Newman; experiment: microbe, parasite or virus in culture; assay type: cell-based; conditions: Staphylococcus aureus, read-out: MIC S. aureus Newman
[2] = system: M. marinum (Mm) strain M (ATCC BAA-535); experiment: microbe, parasite or virus in culture; assay type: cell-based; conditions: Mycobacterium marinum, ATCCBAA535, read-out: MIC M. marinum strain M
[3] = system: M. smegmatis (Msmeg) strain mc^2155; experiment: microbe, parasite or virus in culture; assay type: cell-based; conditions: Mycolicibacterium smegmatis, MC^2155, read-out: MIC M. smegmatis mc^2155
[4] = system: M. tuberculosis (Mtb) strain H37Rv; conditions: cited from earlier work
[5] = system: A. baumannii DSM 30008; experiment: microbe, parasite or virus in culture; assay type: cell-based; conditions: Acinetobacter baumannii, DSM30008, read-out: MIC A. baumannii DSM 30008
[6] = system: B. subtilis DSM 10; experiment: microbe, parasite or virus in culture; assay type: cell-based; conditions: Bacillus subtilis, DSM10, read-out: MIC B. subtilis DSM 10
[7] = system: C. freundii DSM 30039; experiment: microbe, parasite or virus in culture; assay type: cell-based; conditions: Citrobacter freundii, DSM30039, read-out: MIC C. freundii DSM 30039
[8] = target: M. smegmatis DnaN (msDnaN) (Mycolicibacterium smegmatis, UniProt A0QND6); experiment: biochemical; assay type: binding; conditions: for Response (Average): MST source data, runs #1-#3, listed as MP A
Sequence of M. smegmatis DnaN (msDnaN) (A0QND6 whole entry, looked up): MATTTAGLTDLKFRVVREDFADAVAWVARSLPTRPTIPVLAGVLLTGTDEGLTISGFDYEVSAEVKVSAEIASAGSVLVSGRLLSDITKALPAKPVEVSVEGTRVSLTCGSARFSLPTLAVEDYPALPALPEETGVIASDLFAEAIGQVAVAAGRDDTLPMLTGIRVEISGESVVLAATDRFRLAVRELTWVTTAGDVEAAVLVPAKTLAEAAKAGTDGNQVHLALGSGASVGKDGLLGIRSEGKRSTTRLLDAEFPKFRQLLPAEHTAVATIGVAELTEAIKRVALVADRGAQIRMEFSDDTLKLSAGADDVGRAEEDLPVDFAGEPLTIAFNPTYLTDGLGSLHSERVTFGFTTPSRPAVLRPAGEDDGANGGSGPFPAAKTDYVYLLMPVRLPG

[9] = system: CHO-K1 cells; experiment: cells; assay type: cell-based, Chinese hamster (Cricetulus griseus); conditions: Cricetulus griseus, CHO-K1, 120 h, read-out: IC50 CHO-K1
[10] = system: M. tuberculosis (Mtb) strain H37Rv; experiment: microbe, parasite or virus in culture; assay type: cell-based, Mycobacterium tuberculosis
[11] = system: M. smegmatis mc^2155 reporter strain harboring PrecA-LUX; conditions: for luminescence induction: RecA reporter, ciprofloxacin 0.06 µg/mL, MPA 0.125 µg/mL
[12] = system: M. smegmatis mc^2155 GM^R; experiment: microbe, parasite or virus in culture; assay type: cell-based; conditions: Mycolicibacterium smegmatis, MC^2155, read-out: MIC M. smegmatis mc^2155 GM^R
[13] = system: M. tuberculosis (Mtb) strain H37Ra; experiment: microbe, parasite or virus in culture; assay type: cell-based; conditions: Mycobacterium tuberculosis, read-out: MIC Mtb H37Ra
[14] = system: E. coli BW25113; experiment: microbe, parasite or virus in culture; assay type: cell-based; conditions: Escherichia coli, BW25113, read-out: MIC E. coli BW25113
[15] = system: M. smegmatis mc^2155 reporter strain harboring PradA-LUX; conditions: for luminescence induction: RadA reporter, ciprofloxacin 0.06 µg/mL, MPA 0.125 µg/mL

CCC(=O)C(=O)N(C)C(C(=O)N1CC(CC)CC1C(=O)N(C)C1C(=O)NC(CC(C)C)C(=O)N2CC(C)CC2C(=O)NC(CCC(C)C)C(=O)N(C)C(C(C)C)C(=O)N2CCCC2C(=O)N(C)C(CC(C)C)C(=O)NCC(=O)OC1C)C(C)C (centres unmarked) [Mycoplanecin A] ({Butanoyl(2-oxo)}-[NMeV][X1][NMeT]L[ξPro(4ξ-Me)][hLeu][NMeV]P[NMeL]G; ester 3-C; configuration not given here)
MIC [1]: > 64 µg/mL | MIC [2]: 0.5 µg/mL (≈ 0.422 µM) | MIC [3]: 0.0625 µg/mL (≈ 0.0528 µM) | MIC against Mtb H37Rv initially reported [4]: 0.39 µg/mL (≈ 0.33 µM) | MIC [5]: > 64 µg/mL | MIC [6]: > 64 µg/mL | MIC [7]: > 64 µg/mL | Kd [8]: 95.4 ± 58 nM | Response (Average) ([8]; Dose 1.22E-08 (unit not given)): 901.8 and 900.043 and 900.321 | Response (Average) ([8]; Dose 1.25E-05 (unit not given)): 916.3 and 910.333 and 908.121 | Response (Average) ([8]; Dose 1.53E-09 (unit not given)): 900.5 and 901.137 and 897.639 | Response (Average) ([8]; Dose 1.56E-06 (unit not given)): 912 and 910.977 and 908.315 | Response (Average) ([8]; Dose 1.95E-07 (unit not given)): 911.4 and 903.026 and 901.872 | Response (Average) ([8]; Dose 2.44E-08 (unit not given)): 900.5 and 898.574 and 901.47 | Response (Average) ([8]; Dose 2.50E-05 (unit not given)): 912.5 and 912.466 and 910.671 | Response (Average) ([8]; Dose 3.05E-09 (unit not given)): 907.2 and 900.824 and 900.843 | Response (Average) ([8]; Dose 3.13E-06 (unit not given)): 913.2 and 908.487 and 910.005 | Response (Average) ([8]; Dose 3.91E-07 (unit not given)): 910.5 and 900.599 and 903.733 | Response (Average) ([8]; Dose 4.88E-08 (unit not given)): 904.4 and 896.349 and 895.973 | Response (Average) ([8]; Dose 5.00E-05 (unit not given)): 912 and 911.551 and 911.531 | Response (Average) ([8]; Dose 6.10E-09 (unit not given)): 899.2 and 900.167 and 896.514 | Response (Average) ([8]; Dose 6.25E-06 (unit not given)): 912 and 910.662 and 909.72 | Response (Average) ([8]; Dose 7.81E-07 (unit not given)): 913.8 and 908.369 and 909.33 | Response (Average) ([8]; Dose 9.77E-08 (unit not given)): 902.5 and 896.716 and 900.856 | IC50 [9]: > 37 µg/mL | lower MIC against Mtb H37Rv than initially reported [10]: four-fold | MIC ([10]; Mycobacterium tuberculosis, H37RV, read-out: MIC Mtb H37Rv): 0.102 µg/mL (≈ 0.0862 µM) | induction of SOS response through RecA (luminescence) ([11]; 2x MIC, listed as MP A): Strong induction of luminescence | luminescence induction ([11]; elapsed time 0:00:00): 1234 RLU | luminescence induction ([11]; elapsed time 3:00:00): 8420 RLU | luminescence induction ([11]; elapsed time 6:00:00): 19572 RLU | luminescence induction ([11]; elapsed time 9:00:00): 19402 RLU | luminescence induction ([11]; elapsed time 12:00:00): 19729 RLU | luminescence induction ([11]; elapsed time 15:00:00): 23383 RLU | luminescence induction ([11]; elapsed time 18:00:00): 24012 RLU | luminescence induction ([11]; elapsed time 21:00:00): 23254 RLU | luminescence induction ([11]; elapsed time 24:00:00): 21764 RLU | luminescence induction ([11]; elapsed time 27:00:00): 21831 RLU | luminescence induction ([11]; elapsed time 30:00:00): 22602 RLU | luminescence induction ([11]; elapsed time 33:00:00): 24786 RLU | luminescence induction ([11]; elapsed time 36:00:00): 30979 RLU | luminescence induction ([11]; elapsed time 39:00:00): 43998 RLU | luminescence induction ([11]; elapsed time 42:00:00): 72104 RLU | luminescence induction ([11]; elapsed time 45:00:00): 126348 RLU | luminescence induction ([11]; elapsed time 48:00:00): 167800 RLU | luminescence induction ([11]; elapsed time 51:00:00): 276102 RLU | luminescence induction ([11]; elapsed time 54:00:00): 398120 RLU | luminescence induction ([11]; elapsed time 57:00:00): 382129 RLU | luminescence induction ([11]; elapsed time 60:00:00): 236913 RLU | luminescence induction ([11]; elapsed time 63:00:00): 123029 RLU | luminescence induction ([11]; elapsed time 66:00:00): 65825 RLU | luminescence induction ([11]; elapsed time 69:00:00): 39152 RLU | luminescence induction ([11]; elapsed time 72:00:00): 26573 RLU | luminescence induction ([11]; elapsed time 75:00:00): 20127 RLU | luminescence induction ([11]; elapsed time 78:00:00): 16583 RLU | luminescence induction ([11]; elapsed time 81:00:00): 14319 RLU | luminescence induction ([11]; elapsed time 84:00:00): 12316 RLU | luminescence induction ([11]; elapsed time 87:00:00): 11375 RLU | MIC [12]: 4 µg/mL (≈ 3.38 µM) | MIC [13]: 0.03 µg/mL (≈ 0.0253 µM) | MIC [14]: > 64 µg/mL | induction of DNA repair through RadA (luminescence) ([15]; 2x MIC, listed as MP A): Strong induction of luminescence | luminescence induction ([15]; elapsed time 0:00:00): 121 RLU | luminescence induction ([15]; elapsed time 3:00:00): 1545 RLU | luminescence induction ([15]; elapsed time 6:00:00): 2517 RLU | luminescence induction ([15]; elapsed time 9:00:00): 2232 RLU | luminescence induction ([15]; elapsed time 12:00:00): 2473 RLU | luminescence induction ([15]; elapsed time 15:00:00): 2636 RLU | luminescence induction ([15]; elapsed time 18:00:00): 2684 RLU | luminescence induction ([15]; elapsed time 21:00:00): 2416 RLU | luminescence induction ([15]; elapsed time 24:00:00): 2295 RLU | luminescence induction ([15]; elapsed time 27:00:00): 2095 RLU | luminescence induction ([15]; elapsed time 30:00:00): 2147 RLU | luminescence induction ([15]; elapsed time 33:00:00): 2090 RLU | luminescence induction ([15]; elapsed time 36:00:00): 2617 RLU | luminescence induction ([15]; elapsed time 39:00:00): 3126 RLU | luminescence induction ([15]; elapsed time 42:00:00): 4043 RLU | luminescence induction ([15]; elapsed time 45:00:00): 5111 RLU | luminescence induction ([15]; elapsed time 48:00:00): 7463 RLU | luminescence induction ([15]; elapsed time 51:00:00): 8233 RLU | luminescence induction ([15]; elapsed time 54:00:00): 11519 RLU | luminescence induction ([15]; elapsed time 57:00:00): 17058 RLU | luminescence induction ([15]; elapsed time 60:00:00): 25987 RLU | luminescence induction ([15]; elapsed time 63:00:00): 36814 RLU | luminescence induction ([15]; elapsed time 66:00:00): 80633 RLU | luminescence induction ([15]; elapsed time 69:00:00): 73655 RLU | luminescence induction ([15]; elapsed time 72:00:00): 45431 RLU | luminescence induction ([15]; elapsed time 75:00:00): 26035 RLU | luminescence induction ([15]; elapsed time 78:00:00): 15293 RLU | luminescence induction ([15]; elapsed time 81:00:00): 10478 RLU | luminescence induction ([15]; elapsed time 84:00:00): 7153 RLU | luminescence induction ([15]; elapsed time 87:00:00): 4415 RLU
